One data set concerns the target T1, full‐length SHP2 (Homo sapiens, UniProt Q06124).
T1 construct: 1–525) proteins were prepared; His-SUMO3 (pETM11-SUMO3 vector) (N, cleaved yes); made in house; host or cells: E. coli BL21(DE3)
T1 sequence (Q06124 1-525): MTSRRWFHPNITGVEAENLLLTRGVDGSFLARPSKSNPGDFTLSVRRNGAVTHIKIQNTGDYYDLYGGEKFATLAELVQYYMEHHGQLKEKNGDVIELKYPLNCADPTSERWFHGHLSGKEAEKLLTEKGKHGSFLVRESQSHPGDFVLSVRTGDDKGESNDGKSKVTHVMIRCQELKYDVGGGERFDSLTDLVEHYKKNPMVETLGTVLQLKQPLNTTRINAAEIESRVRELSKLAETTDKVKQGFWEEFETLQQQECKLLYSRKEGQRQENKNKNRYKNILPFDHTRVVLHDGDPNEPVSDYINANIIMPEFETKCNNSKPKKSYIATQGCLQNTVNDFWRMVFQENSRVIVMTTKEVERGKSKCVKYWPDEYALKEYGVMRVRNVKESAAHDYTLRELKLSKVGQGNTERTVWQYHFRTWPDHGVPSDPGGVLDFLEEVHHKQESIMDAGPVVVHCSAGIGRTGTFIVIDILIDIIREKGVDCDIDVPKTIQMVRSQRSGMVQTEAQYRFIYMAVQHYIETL
The experiment in a line: DiFMUP phosphatase assay, peptide inhibition in the presence of ITIM-[dPEG4]2-ITSM activator. It counts as biochemical. The conditions noted are these: 0.5 nM full-length SHP2 activated with 26 nM bisphosphorylated ITIM-[dPEG4]2-ITSM, 200 µM DiFMUP, pH 7.6, 20 min pre-incubation at room temperature; two or three independent experiments in technical triplicates; read-out: IC50 ± SEM (DiFMUP activity assay). The procedure:
6. DiFMUP phosphatase assays
SHP2 dephosphorylation of the fluorogenic substrate 6,8-difluoro-4-methylumbiliferyl phosphate (DiFMUP) was measured to evaluate the effect of acetylated peptides on SHP2 activity. Final concentrations of 0.5 nM full-length SHP2, 200 µM DiFMUP (Invitrogen) and 26 nM bisphosphorylated tandem ITIM-[dPEG4]2-ITSM (CASLO ApS) were used, unless stated otherwise, per well in 96-well plates (OptiPlate-96 F Black; PerkinElmer). For peptide activation assays, each well contained 60 µL of reaction buffer (50 mM HEPES pH 7.6, 150 mM NaCl, 1 mM EDTA, 0.05% Tween 20, freshly added 5 mM DTT), 10 µL of SHP2 and 20 µL of the test peptide (0.096 nM – 51.2 µM final concentration). For peptide inhibition assays in the presence of a SHP2 activator, each well contained 40 µL of reaction buffer (50 mM HEPES pH 7.6, 150 mM NaCl, 1 mM EDTA, 0.05% Tween 20, freshly added 5 mM DTT), 10 µL of SHP2 and 40 µL of previously mixed bisphosphorylated tandem ITIM-[dPEG4]2-ITSM activator and test peptide (0.096 nM – 51.2 µM or 0.376 nM – 200 µM final concentration). To obtain the maximal activity, 10 µL of SHP2 and 20 µL of bisphosphorylated tandem ITIM-[dPEG4]2-ITSM activator was added to 60 µL of buffer. Samples were incubated for 20 minutes at room temperature and then 10 µL of DiFMUP was added to each sample, to give a final volume of 100 µL per well. For background subtraction, 10 µL of DiFMUP was added to 80 µL of buffer. The fluorescence was immediately measured on a Synergy H1 Microplate Reader (BioTek) with the excitation and emission monitored at 358 nm and 452 nm, respectively, over 30 minutes. Data were analysed in Excel 2016 by subtracting background values from emission values and calculating the slope of the emission profiles. Data were then further analysed in GraphPad Prism 6 by either: 1) plotting the slope against the peptide concentration and fitting the data to a variable slope model of non-linear regression; or 2) normalising the data to the maximal activity (SHP2 in the presence of ITIM-[dPEG4]2-ITSM; set to 100% activity) to obtain the % activity, plotting the % activity against the peptide concentration and fitting the data to a variable slope model of non-linear regression to obtain the IC50 values. Data are from two or three independent experiments, each performed in […]

Another data set has as its system WT HeLa cells. To be noted: CCK-8, 100–300 µM, 16 h; three or four independent experiments in technical triplicates. The procedure: (§1) three or four independent experiments with 4 – 7 images taken per well in each […]
(§2) 7. Peptide cytotoxicity assays
(§3) The cytotoxicity of acetylated peptide 29 in WT Jurkat T cells and WT HeLa cells was determined using Cell Counting Kit-8 (CCK-8). Jurkat cells were seeded at 5 x 10^4 cells/well and HeLa cells were seeded at 5 x 10^3 cells/well in 96-well flat-bottom cell culture plates (Greiner Bio-One). HeLa cells were allowed to adhere overnight at 37°C […]
(§4) 200 µM for Jurkat cells and 100 µM, 200 µM or 300 µM for HeLa cells in a total volume of 100 µL, each concentration in triplicate wells. In addition, three wells containing media alone as the background, three wells containing vehicle (H2O) treated cells as the negative control and three wells containing cells treated with 5% DMSO (Jurkat cells) or 20% DMSO (HeLa cells) to induce cell death as the positive control, were included in the plate. Cells were incubated with the peptide or controls for 24 hours (Jurkat cells) or 16 hours (HeLa cells) at 37°C and 5% CO2, then 10 µL of CCK-8 solution (Sigma-Aldrich) was added to each well and incubated for 1.5 hours at 37°C

The next data set has as its system WT Jurkat T cells. To be noted: CCK-8, 50–200 μM, 24 h; four independent experiments in technical triplicates. The procedure:
as §1, §2, §3, §4

In the next data set the target is T2, SHP2 C‐SH2 domain (Homo sapiens, UniProt Q06124).
T2 construct: SHP2 N-SH2 domain (1–105), C-SH2 domain (106–220), PTP domain (224–541) and; His6 (pETM22 vector) (N, cleaved yes); made in house; host or cells: E. coli BL21(DE3)
T2 sequence (Q06124 106-220): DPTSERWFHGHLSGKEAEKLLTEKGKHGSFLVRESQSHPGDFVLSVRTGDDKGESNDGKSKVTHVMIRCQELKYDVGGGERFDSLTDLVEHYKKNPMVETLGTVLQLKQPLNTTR
To be noted: ITC, previously reported; read-out: previously reported ITC K D, C‐SH2; cited from earlier work.

For another data set, the target named is T3, SHP2 N‐SH2 domain (Homo sapiens, UniProt Q06124).
T3 construct: SHP2 N-SH2 domain (1–105), C-SH2 domain (106–220), PTP domain (224–541) and; His6 (pETM22 vector) (N, cleaved yes); made in house; host or cells: E. coli BL21(DE3)
T3 sequence (Q06124 1-105): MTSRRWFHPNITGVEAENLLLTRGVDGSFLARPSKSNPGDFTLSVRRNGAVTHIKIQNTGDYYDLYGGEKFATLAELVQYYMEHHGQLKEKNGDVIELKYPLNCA
To be noted: ITC, previously reported; read-out: previously reported ITC K D, N‐SH2; cited from earlier work. For orientation: In ITC the heat of successive injections is recorded.

Non-standard residues stand in square brackets, D forms with d. Residues, ends and D or L forms follow the SMILES beside them. *: point of attachment. AEEA = NCCOCCOCC(=O)O; X1 = O=C(O)C(C(=O)O)*

Broadly, the IC50 is the concentration at which inhibition is half-maximal. Consider `CC[C@H](C)[C@H](NC(=O)[C@@H](NC(=O)[C@H](C)NC(=O)[C@H](Cc1ccc(OC(C(=O)O)C(=O)O)cc1)NC(=O)[C@H](CCC(=O)O)NC(=O)[C@@H](NC(=O)[C@H](CCC(N)=O)NC(C)=O)[C@@H](C)O)[C@@H](C)O)C(=O)N[C@@H](CCCCN)C(=O)N[C@@H](Cc1c[nH]cn1)C(=O)N1CCC[C@H]1C(N)=O` [peptide 24] (Ac-QTEY(X1)ATIKHP-NH2), for which the IC50 at full‐length SHP2 was found to be 7.82 ± 1.95 µM.

As for `CC[C@H](C)[C@H](NC(=O)[C@@H](NC(=O)[C@H](C)NC(=O)[C@H](Cc1ccc(OC(C(=O)O)C(=O)O)cc1)NC(=O)[C@H](CCC(=O)O)NC(=O)[C@@H](NC(=O)[C@H](CCC(N)=O)NC(=O)COCCOCCNC(=O)[C@@H](CCCNC(=N)N)NC(=O)[C@@H](CCCNC(=N)N)NC(=O)[C@@H](CCCNC(=N)N)NC(=O)[C@@H](CCCNC(=N)N)NC(=O)[C@@H](CCCNC(=N)N)NC(=O)[C@@H](CCCNC(=N)N)NC(=O)[C@@H](CCCNC(=N)N)NC(=O)[C@@H](CCCNC(=N)N)NC(C)=O)[C@@H](C)O)[C@@H](C)O)C(=O)N[C@@H](CCCCN)C(=O)N[C@@H](Cc1c[nH]cn1)C(=O)N1CCC[C@H]1C(N)=O` [peptide 29] (Ac-[dR][dR][dR][dR][dR][dR][dR][dR][AEEA]QTEY(X1)ATIKHP-NH2), the “cytotoxicity (viability) in HeLa cells” value with WT HeLa cells is given as “no toxicity”. Moreover, the “cytotoxicity (viability) in Jurkat cells” value with WT Jurkat T cells is recorded as “only started showing a trend toward some toxicity at the highest concentration of 200 μM”.

Consider “PD‐1 ITSM: PD‐1 immunoreceptor tyrosine‐based switch motif phosphopeptide of the authors' earlier work (ref 11) (EQTEYATIVFP; phospho-Tyr5 (pTyr))”, for which the Kd with SHP2 C‐SH2 domain was 0.013 µM; with SHP2 N‐SH2 domain it was 0.167 µM.
